Measurements taken from US9630841B2, “Method for producing an aqueous stable chlorine dioxide solution” (A.P.F. AQUA SYSTEM AG, priority 2010, dated 2017).

How the values were obtained:
[1] = aqueous solution, 20° C.; cited from earlier work
[2] = Saturation limit of chlorine dioxide in water; assay type: physicochemical; conditions: 5° C. and normal pressure
Text: With the method according to the invention, chlorine dioxide solutions can be produced in any desired and/or suitable concentration. Preferably, aqueous solutions of up to about 2 wt %, preferably about 1 wt % of chlorine dioxide are produced with the method according to the invention. Chlorine dioxide solutions with higher concentrations are more difficult to obtain because of the limited solubility of chlorine dioxide in water, but they can nevertheless be realized. When using higher concentrations of chlorite for the production of the chlorine dioxide solutions according to the invention, in particular when using chlorite concentrations in the range of the saturation solubility of the corresponding chlorite salt, aqueous chlorine dioxide solutions with a concentration of up to about 4.5 wt % can be produced. The value of about 4.5 wt % represents the saturation limit of chlorine dioxide in water determined experimentally at 5° C. and normal pressure. With higher pressure, even free chlorine dioxide phases can be generated in water. […] This means that the solubility of chlorine dioxide is higher, the less foreign matter there is in the solution. […]

Compound | saturation concentration [1] | saturation limit of chlorine dioxide in water [2]
O=S(=O)([O-])OOS(=O)(=O)[O-].[Na+].[Na+] [sodium peroxodisulfate] | about 54.5 wt % | 
[O][Cl+][O-] [chlorine dioxide] |  | about 4.5 wt %
